Biological target: T1, Human recombinant MetAP2 (Homo sapiens, UniProt P50579)
T1 construct: made in house; host or cells: Sf9 insect cells
Assay: inhibition of recombinant human MetAP2 activity (MAS substrate, amino acid oxidase/Amplex red fluorescence)
Type: biochemical
Details: manganese enzyme, 30 minutes at 25° C., pH 7.5, 0.75 mM MAS substrate, 1% DMSO
Experimental: Compounds are tested for their capacity to inhibit recombinant human MetAP2 activity using the following assay.
Human recombinant MetAP2 expressed in Sf9 cells followed by affinity purification and EDTA treatment to remove endogenous active site cation was dialysed against MnCl2 to produce the manganese enzyme used in the assay. The assay was carried out for 30 minutes at 25° C. in 50 mM HEPES buffer containing 100 mM NaCl, pH 7.5 the presence of 0.75 mM Methionine-Alanine-Serine (MAS) substrate and 50 μg/ml amino acid oxidase using a dilution of purified MetAP2 giving >3-fold signal:noise. Cleavage of the substrate by MetAP2 and oxidation of free methionine by amino acid oxidase was detected and quantified using fluorescence generated by Amplex red (10-acetyl-3,7-dihydroxyphenoxazine) in combination with horseradish peroxidase which detects H2O2 released during the oxidation step. The fluorescent signal was detected using a multiwell fluorimeter. Compounds were diluted in DMSO prior to addition to assay buffer, the final DMSO concentration in the assay being 1%.
The IC50 is defined as the concentration at which a given compound achieves 50% inhibition of control. IC50 values are calculated using the XLfit software package (version 2.0.5).

T1 sequence (P50579 whole entry): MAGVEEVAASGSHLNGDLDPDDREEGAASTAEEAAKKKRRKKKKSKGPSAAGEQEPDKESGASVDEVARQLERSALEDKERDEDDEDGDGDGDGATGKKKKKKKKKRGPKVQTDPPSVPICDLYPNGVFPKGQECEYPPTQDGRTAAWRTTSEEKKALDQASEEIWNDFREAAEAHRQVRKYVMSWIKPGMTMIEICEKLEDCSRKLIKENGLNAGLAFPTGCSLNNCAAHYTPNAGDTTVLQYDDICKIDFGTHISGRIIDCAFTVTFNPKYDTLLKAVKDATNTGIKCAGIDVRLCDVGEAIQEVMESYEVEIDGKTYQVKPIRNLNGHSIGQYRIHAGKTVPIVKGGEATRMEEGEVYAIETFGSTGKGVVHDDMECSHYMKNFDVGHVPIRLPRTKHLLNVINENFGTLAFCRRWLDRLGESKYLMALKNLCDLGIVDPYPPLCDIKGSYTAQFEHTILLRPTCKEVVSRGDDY

| SMILES | IC50 |
| --- | --- |
| O=C(O)c1c(NS(=O)(=O)c2ccc(F)cc2/C=C2/CN3CCC2CC3)ccc2c1OC[C@@H]1C[C@H]21 (single isomer, unassigned) [Example 11] | < 50 nM |
| O=C(O)c1c(NS(=O)(=O)c2ccc(F)cc2C[C@@H]2CCN(CCO)C2)ccc2c1OC[C@@H]1C[C@H]21 [Example 17, (1aR,7bS)-5-{4-Fluoro-2-[(R)-1-(2-hydroxyethyl)pyrrolidin-3-ylmethyl]-benzenesulfonylamino}-1,1a,2,7b-tetrahydrocyclopropa[c]chromene-4-carboxylic acid] | < 50 nM |
| O=C(O)c1c(NS(=O)(=O)c2ccc(F)cc2/C=C\[C@@H]2CCCN2)ccc2c1OC[C@@H]1C[C@H]21 [Example 24, (1aR,7bS)-5-{4-Fluoro-2-[(Z)-2-((S)-pyrrolidin-2-yl)ethenyl]benzenesulfonyl-amino}-1,1a,2,7b-tetrahydrocyclopropa[c]chromene-4-carboxylic acid] | < 50 nM |
| O=C(O)c1c(NS(=O)(=O)c2ccc(F)cc2/C=C\CN2CC[C@H](CO)C2)ccc2c1OC[C@@H]1C[C@H]21 [Example 25, (1aR,7bS)-5-{4-Fluoro-2-[(Z)-3-((S)-3-hydroxymethylpyrrolidin-1-yl)prop-1-enyl]benzenesulfonylamino}-1,1a,2,7b-tetrahydrocyclopropa[c]chromene-4-carboxylic acid] | < 50 nM |
| CC(C)(O)[C@@H]1CCN(C/C=C\c2cc(F)ccc2S(=O)(=O)Nc2ccc3c(c2C(=O)O)OC[C@@H]2C[C@H]32)C1 [Example 28, (1aR,7bS)-5-(4-Fluoro-2-{(Z)-3-[(R)-3-(2-hydroxypropan-2-yl)pyrrolidin-1-yl]prop-1-enyl}benzenesulfonylamino)-1,1a,2,7b-tetrahydrocyclopropa[c]chromene-4-carboxylic acid] | < 50 nM |
| CCN1CC[C@H](C(=O)NCc2cc(F)ccc2S(=O)(=O)Nc2ccc3c(c2C(=O)O)OC[C@@H]2C[C@H]32)C1 [Example 32, (1aR,7bS)-5-{2-[((S)-1-ethylpyrrolidine-3-carbonyl)aminomethyl]-4-fluoro-benzenesulfonylamino}-1,1a,2,7b-tetrahydrocyclopropa[c]chromene-4-carboxylic acid-formic acid (1:1)] | < 50 nM |
| CCN1CC2C(C1)C2c1cc(F)ccc1S(=O)(=O)Nc1ccc2c(c1C(=O)O)OC[C@@H]1C[C@H]21 (stereo partly drawn) [Example 23, (1aR,7bS)-5-[2-(3-Ethyl-3-azabicyclo[3.1.0]hex-6-yl)-4-fluorobenzene-sulfonylamino]-1,1a,2,7b-tetrahydrocyclopropa[c]chromene-4-carboxylic acid] | 50 to 500 nM |
| CCN1CC[C@@H](Cc2ccccc2S(=O)(=O)Nc2ccc3c(c2C(=O)O)OC[C@@H]2C[C@H]32)C1 [Example 31, (1aR,7bS)-5-[2-((3R)-1-Ethylpyrrolidin-3-ylmethyl)benzenesulfonylamino]-1,1a,2,7b-tetrahydrocyclopropa[c]chromene-4-carboxylic acid] | < 50 nM |
| O=C(O)c1c(NS(=O)(=O)c2ccc(F)cc2/C=C\CN2CC[C@@H](CO)C2)ccc2c1OC[C@@H]1C[C@H]21 [Example 26, (1aR,7bS)-5-{4-Fluoro-2-[(Z)-3-((R)-3-hydroxymethylpyrrolidin-1-yl)prop-1-enyl]benzenesulfonylamino}-1,1a,2,7b-tetrahydrocyclopropa[c]chromene-4-carboxylic acid] | < 50 nM |
| CCN1CCCC(Cc2cc(F)ccc2S(=O)(=O)Nc2ccc3c(c2C(=O)O)OCC2CC32)C1 (single isomer, unassigned) [Example 14] | < 50 nM |
| CCN1CCCC(Cc2cc(F)ccc2S(=O)(=O)Nc2ccc3c(c2C(=O)O)OCC2CC32)C1 (single isomer, unassigned) [Example 15] | < 50 nM |
| CCN1[C@@H]2CC[C@H]1C[C@H](Cc1cc(F)ccc1S(=O)(=O)Nc1ccc3c(c1C(=O)O)OC[C@@H]1C[C@H]31)C2 (single isomer, unassigned) [Example 19] | < 50 nM |
| O=C(O)c1c(NS(=O)(=O)c2ccc(F)cc2C[C@H]2CCNC2)ccc2c1OC[C@@H]1C[C@H]21 [Example 7, (1aR,7bS)-5-[4-Fluoro-2-((S)-pyrrolidin-3-ylmethyl)benzenesulfonylamino]-1,1a,2,7b-tetrahydrocyclopropa[c]chromene-4-carboxylic acid] | < 50 nM |
| O=C(O)c1c(NS(=O)(=O)c2ccc(F)cc2C[C@@H]2CCNC2)ccc2c1OC[C@@H]1C[C@H]21 [Example 6, (1aR,7bS)-5-[4-Fluoro-2-((R)-pyrrolidin-3-ylmethyl)benzenesulfonylamino]-1,1a,2,7b-tetrahydrocyclopropa[c]chromene-4-carboxylic acid] | < 50 nM |
| CCN1CC[C@@H](NCCc2cc(F)ccc2S(=O)(=O)Nc2ccc3c(c2C(=O)O)OC[C@@H]2C[C@H]32)C1 [Example 33, (1aR,7bS)-5-{2-[2-((R)-1-ethylpyrrolidin-3-ylamino)ethyl]-4-fluoro-benzene-sulfonylamino}-1,1a,2,7b-tetrahydrocyclopropa[c]chromene-4-carboxylic acid-formic acid (1:1)] | < 50 nM |
| CCN1CCC(NC(=O)Cc2cc(F)ccc2S(=O)(=O)Nc2ccc3c(c2C(=O)O)OC[C@@H]2C[C@H]32)C1 (stereo in doubt) [Example 30, (1aR,7bS)-5-{2-[((S)-1-Ethylpyrrolidin-3-ylcarbamoyl)methyl]-4-fluoro-benzenesulfonylamino}-1,1a,2,7b-tetrahydrocyclopropa[c]chromene-4-carboxylic acid] | < 50 nM |
| CCN1[C@@H]2CC[C@H]1C[C@@H](Cc1cc(F)ccc1S(=O)(=O)Nc1ccc3c(c1C(=O)O)OC[C@@H]1C[C@H]31)C2 (single isomer, unassigned) [Example 18] | < 50 nM |
| CCN1CCC/C(=C/c2cc(F)ccc2S(=O)(=O)Nc2ccc3c(c2C(=O)O)OC[C@@H]2C[C@H]32)C1 (single isomer, unassigned) [Example 13] | 50 to 500 nM |
| CCN1CCC/C(=C\c2cc(F)ccc2S(=O)(=O)Nc2ccc3c(c2C(=O)O)OC[C@@H]2C[C@H]32)C1 (single isomer, unassigned) [Example 12] | < 50 nM |
| CC1(O)CCN(C/C=C\c2cc(F)ccc2S(=O)(=O)Nc2ccc3c(c2C(=O)O)OC[C@@H]2C[C@H]32)C1 (stereo partly drawn) [Example 20, (1aR,7bS)-5-{4-Fluoro-2-[(Z)-3-(3-hydroxy-3-methylpyrrolidin-1-yl)prop-1-enyl]benzenesulfonylamino}-1,1a,2,7b-tetrahydrocyclopropa[c]chromene-4-carboxylic acid] | < 50 nM |
| CCN1CCC[C@@H]1CCc1cc(F)ccc1S(=O)(=O)Nc1ccc2c(c1C(=O)O)OC[C@@H]1C[C@H]21 [Example 16, (1aR,7bS)-5-{2-[2-((S)-1-Ethylpyrrolidin-2-yl)ethyl]-4-fluorobenzene-sulfonylamino}-1,1a,2,7b-tetrahydrocyclopropa[c]chromene-4-carboxylic acid] | < 50 nM |
| O=C(O)c1c(NS(=O)(=O)c2ccc(F)cc2CC2CN3CCC2CC3)ccc2c1OC[C@@H]1C[C@H]21 (stereo partly drawn) [Example 9, (1aR,7bS)-5-[2-(1-Azabicyclo[2.2.2]oct-3-ylmethyl)-4-fluorobenzenesulfonyl-amino]-1,1a,2,7b-tetrahydrocyclopropa[c]chromene-4-carboxylic acid] | < 50 nM |
| CC(C)(O)[C@H]1CCN(C/C=C\c2cc(F)ccc2S(=O)(=O)Nc2ccc3c(c2C(=O)O)OC[C@@H]2C[C@H]32)C1 [Example 27, (1aR,7bS)-5-(4-Fluoro-2-{(Z)-3-[(S)-3-(2-hydroxypropan-2-yl)pyrrolidin-1-yl]prop-1-enyl}benzenesulfonylamino)-1,1a,2,7b-tetrahydrocyclopropa[c]chromene-4-carboxylic acid] | < 50 nM |
| O=C(O)c1c(NS(=O)(=O)c2ccc(F)cc2CC2CC3CCCN3C2)ccc2c1OC[C@@H]1C[C@H]21 (stereo partly drawn) [Example 29, (1aR,7bS)-5-[4-Fluoro-2-(hexahydro-1H-pyrrolizin-2-ylmethyl)benzene-sulfonylamino]-1,1a,2,7b-tetrahydrocyclopropa[c]chromene-4-carboxylic acid] | < 50 nM |
| CC(C)(O)CN1CC[C@@H](Cc2cc(F)ccc2S(=O)(=O)Nc2ccc3c(c2C(=O)O)OC[C@@H]2C[C@H]32)C1 [Example 8, (1aR,7bS)-5-{4-Fluoro-2-[(R)-1-(2-hydroxy-2-methylpropyl)pyrrolidin-3-ylmethyl]benzenesulfonylamino}-1,1a,2,7b-tetrahydrocyclopropa[c]chromene-4-carboxylic acid] | < 50 nM |
| O=C(O)c1c(NS(=O)(=O)c2ccc(F)cc2C2CC2CN2CCCC2)ccc2c1OC[C@@H]1C[C@H]21 (stereo partly drawn) [Example 4, (1aR,7bS)-5-{4-Fluoro-2-[2-(pyrrolidin-1-ylmethyl)cyclopropyl]benzene-sulfonylamino}-1,1a,2,7b-tetrahydrocyclopropa[c]chromene-4-carboxylic acid] | 50 to 500 nM |
| O=C(O)c1c(NS(=O)(=O)c2ccc(F)cc2/C=C2\CN3CCC2CC3)ccc2c1OC[C@@H]1C[C@H]21 (single isomer, unassigned) [Example 10] | < 50 nM |

Same assay, conditions: manganese enzyme, 30 minutes at 25° C., pH 7.5, 0.75 mM MAS substrate, 1% DMSO; listed as First eluting enantiomer of (1aR,7bS)-5-[2-(2-diethylamino-methylcyclopropyl)-4-

| SMILES | IC50 |
| --- | --- |
| CCN(CC)CC1CC1c1cc(F)ccc1S(=O)(=O)Nc1ccc2c(c1C(=O)O)OC[C@@H]1C[C@H]21 (stereo partly shown) [Example 2] | < 50 nM |

Source: patent US9868717B2, “Tricyclic sulphonamide compounds and methods of making and using same” (Zafgen, Inc., priority 2012, dated 2018)
